# Reference: ChEMBL document CHEMBL1149368, “1-Aminomethylbenzocycloalkanes: conformationally restricted hallucinogenic phenethylamine analogues as functionally selective 5-HT2A receptor agonists” (J Med Chem, 2006)
# Tests used:
# [1] = target: 5-hydroxytryptamine receptor 2A (Homo sapiens, UniProt P28223)
# Description: Displacement of (+/-)-[125I]DOI from human cloned 5HT2A receptor
# [2] = target: T1, 5-hydroxytryptamine receptor 2A (Rattus norvegicus, UniProt P14842)
# Description: Displacement of (+/-)-[125I]DOI from rat cloned 5HT2A receptor
# [3] = target: T1, 5-hydroxytryptamine receptor 2A; experiment: Activity at rat 5HT2A receptor expressed in NIH3T3 cells assessed as stimulation of phospholipase C-mediated IP production; format: functional, cell-based
# T1 sequence (P14842 whole entry): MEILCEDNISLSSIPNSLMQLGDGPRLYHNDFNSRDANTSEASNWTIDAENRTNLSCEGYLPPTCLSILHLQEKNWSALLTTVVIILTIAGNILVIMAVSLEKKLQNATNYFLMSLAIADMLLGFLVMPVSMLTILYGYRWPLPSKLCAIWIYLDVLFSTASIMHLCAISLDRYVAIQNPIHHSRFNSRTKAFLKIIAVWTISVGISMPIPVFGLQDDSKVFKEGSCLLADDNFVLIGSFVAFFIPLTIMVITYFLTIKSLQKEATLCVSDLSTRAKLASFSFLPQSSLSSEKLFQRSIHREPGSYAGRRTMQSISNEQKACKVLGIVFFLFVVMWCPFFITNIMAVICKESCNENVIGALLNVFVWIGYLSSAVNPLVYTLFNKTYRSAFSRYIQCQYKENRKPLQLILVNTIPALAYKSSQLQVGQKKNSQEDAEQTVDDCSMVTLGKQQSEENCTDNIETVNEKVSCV
# Sequence of 5-hydroxytryptamine receptor 2A (Homo sapiens, UniProt P28223) (P28223 whole entry): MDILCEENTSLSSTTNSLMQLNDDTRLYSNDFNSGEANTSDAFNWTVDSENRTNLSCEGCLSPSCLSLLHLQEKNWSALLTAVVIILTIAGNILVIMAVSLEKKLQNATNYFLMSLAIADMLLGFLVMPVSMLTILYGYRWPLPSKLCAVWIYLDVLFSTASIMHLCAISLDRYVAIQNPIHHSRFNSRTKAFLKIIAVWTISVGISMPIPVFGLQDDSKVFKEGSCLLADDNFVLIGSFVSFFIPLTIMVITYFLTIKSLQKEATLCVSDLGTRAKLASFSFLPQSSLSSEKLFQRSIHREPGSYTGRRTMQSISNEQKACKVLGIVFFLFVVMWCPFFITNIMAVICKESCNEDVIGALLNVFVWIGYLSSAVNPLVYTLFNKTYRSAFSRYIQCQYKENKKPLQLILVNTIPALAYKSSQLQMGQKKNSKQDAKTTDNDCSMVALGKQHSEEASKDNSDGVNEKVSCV
compound,measurement,setting,value
COc1cc(CCN)c(OC)cc1Br,Ki,[1],0.66 nM
same,Ki,[2],0.88 nM
same,EC50,[3],27 nM
COc1cc(Br)c(OC)c2c1C(CN)CC2 (racemic),Ki,[1],53 nM
same,Ki,[2],47 nM
COc1cc(Br)c2c3c1[C@@H](CN)CCC[C@@H]3CO2 (racemic),Ki,[1],170 nM
same,Ki,[2],74 nM
COc1cc(Br)c2c3c1[C@H](CN)CCC[C@@H]3CO2 (racemic),Ki,[1],200 nM
same,Ki,[2],170 nM
